# Measurements taken from patent publication US20230136218A1, “METHODS AND COMPOSITIONS FOR TREATING ACUTE MYELOID LEUKEMIA” (President and Fellows of Harvard College, priority 2019, published 2023).
# Entries after “also recorded” stand apart in the source; their conditions may differ.
# Key:
# MLL-AF9 AML = assay: Kaplan-Meier survival of MLL-AF9 AML-bearing mice; assay type: in vivo, mouse
# Excerpt: (§1) The MLL-AF9 and HoxA9/Meis1 leukemia models have been described previously (Sykes et al., 2016). Briefly, the MLL-AF9 model was established by crossing MLL-AF9 knockin mice (Corral et al., 1996) with mice expressing GFP under the control of the ubiquitin promoter as well as mice expressing luciferase under the control of the β-actin promoter. The retroviral transduction model of HoxA9/Meis1 leukemia was generated by the infection of bone marrow mononuclear cells with an MSCV-HoxA9-IRES-Meis1 construct (originally designed by Dr. Guy Sauvageau; Kroon et al., 1998). For both models, leukemic bone marrow cells from a terminally ill mouse were harvested and expanded ex vivo in RPMI1640 medium (Lonza) supplemented with 10% fetal bovine serum (FBS; Gibco), 100 I.U./ml penicillin, 100 μg/ml streptomycin, 2 mM L-glutamine (all from Corning), 20 ng/ml recombinant mouse SCF (rmSCF), 10 ng/ml recombinant mouse interleukin 3 (rmIL-3) and […] (all from R&D Systems).
# (§2) Recipient male mice (age 8-10 weeks) were injected intravenously (retro-orbital) with 1 million leukemia cells in a volume of 100 μl of saline. Disease progression was tracked intravitally using bioluminescence imaging. Mice were anaesthetized using isoflurane, injected with luciferin (150 μl of a 15 mg/ml solution in PBS), and imaged on an IVIS 200 Spectrum In Vivo Imaging System (PerkinElmer). When indicated, mice were treated with iCT (cytarabine, 100 mg/kg, once daily for 5 days and doxorubicin, 3 mg/kg, once daily for the first 3 days) or vehicle (saline) delivered via I.P. injection. To inhibit glutamine metabolism, mice were treated with DON (0.3 mg/kg, once daily) or vehicle (saline) delivered via I.P. injection. To inhibit GLS, mice were treated with a GLS inhibitor (150 mg/kg, twice daily) or vehicle (20% HP-β-cyclodextrin+20% Solutol, 50 mM citrate buffer, pH 3) delivered by oral gavage. To inhibit DHODH, mice were treated with BRQ (50 mg/kg, once daily) or vehicle (70% PBS, 30% poly(ethylene glycol)-400, pH 7.2) delivered via I.P. injection. To inhibit GCL, mice were treated with BSO (twice daily by I.P. injection at 2.23 mg/kg+in the drinking water at 4.45 mg/ml) or vehicle (saline by I.P. injection+untreated drinking water).
# HoxA9/Meis1 AML = assay: Kaplan-Meier survival of HoxA9/Meis1 AML-bearing mice; assay type: in vivo, mouse
# Excerpt: as §1
# (§3) Recipient male mice (age 8-10 weeks) were injected intravenously (retro-orbital) with 1 million leukemia cells in a volume of 100 μl of saline. Disease progression was tracked intravitally using bioluminescence imaging. Mice were anaesthetized using isoflurane, injected with luciferin (150 μl of a 15 mg/ml solution in PBS), and imaged on an IVIS 200 Spectrum In Vivo Imaging System (PerkinElmer). […]
# MLL-AF9 AML cells [1] = assay: AML burden of MLL-AF9 AML-bearing mice by bioluminescence imaging or flow cytometry; assay type: in vivo, mouse
# Procedure: as §2, with “To inhibit DHODH, mice were treated with BRQ (50 mg/kg, once daily) or vehicle (70% PBS, 30% poly(ethylene glycol)-400, pH 7.2) delivered via I.P. injection. To inhibit GCL, mice were treated with BSO (twice daily by I.P. injection at 2.23 mg/kg+in the drinking water at 4.45 mg/ml) or vehicle (saline by I.P. injection+untreated drinking water).” left out
# (§4) Cells were suspended in flow buffer and stained for 30 minutes at 4° C. in the dark with antibodies against c-Kit, Sca-1, CD34, CD45, Ter-119, CD31, LepR, CD90, CD105, SLC1A3, SLC38A1 or a lineage cocktail (CD3, Gr-1, CD11b, B220, Ter-119). […] Cell viability was analyzed using Annexin V-APC (BioLegend) and propidium iodide (PI; ThermoFisher Scientific) with Annexin V^−PI^− cells considered as viable cells. The number of viable cells was determined by taking into account the total number of cells per well as measured using a Cellometer (Nexcelom). Mitochondrial membrane potential was measured by Tetramethylrhodamine, ethyl ester (TMRE; ThermoFisher) staining and levels of ROS were measured by CellROX Orange staining. Cells were incubated with 200 nM TMRE or 2.5 μM CellROX Orange in RPMI1640 medium supplemented with 10% FBS, 100 I.U./ml penicillin, 100 μg/ml streptomycin and 2 mM L-glutamine at 37° C. for 30 minutes, washed in flow buffer and analyzed. For all flow cytometry experiments, single color controls were used to set compensations and fluorescence minus one controls were used to set gates. […]
# MLL-AF9 AML cells [2] = assay: Flow cytometric quantification of CD34 and cKit levels in AML cells obtained from treated mice; assay type: in vivo, mouse
# Procedure: as §2
# Cells were suspended in flow buffer and stained for 30 minutes at 4° C. in the dark with antibodies against c-Kit, Sca-1, CD34, CD45, Ter-119, CD31, LepR, CD90, CD105, SLC1A3, SLC38A1 or a lineage cocktail (CD3, Gr-1, CD11b, B220, Ter-119). 7-AAD was included as a viability dye to help identify dead cells. When necessary, cells were stained with a secondary antibody (Alexa Fluor 546-conjugated anti-rabbit IgG) or APC-eFluor 780-conjugated streptavidin (eBioscience) for 15 minutes at 4° C. in the dark. […] Cell viability was analyzed using Annexin V-APC (BioLegend) and propidium iodide (PI; ThermoFisher Scientific) with Annexin V^−PI^− cells considered as viable cells. The number of viable cells was determined by taking into account the total number of cells per well as measured using a Cellometer (Nexcelom). Mitochondrial membrane potential was measured by Tetramethylrhodamine, ethyl ester (TMRE; ThermoFisher) staining and levels of ROS were measured by CellROX Orange staining. Cells were incubated with 200 nM TMRE or 2.5 μM CellROX Orange in RPMI1640 medium supplemented with 10% FBS, 100 I.U./ml penicillin, 100 μg/ml streptomycin and 2 mM L-glutamine at 37° C. for 30 minutes, washed in flow buffer and analyzed. For all flow cytometry experiments, single color controls were used to set compensations and fluorescence minus one controls were used to set gates. All flow cytometry data was collected on a BD LSR II flow cytometer and analyzed using FlowJo software.
# MLL-AF9 AML cells [3] = assay: Colony forming unit assay of AML cells obtained from treated mice; assay type: in vivo, mouse
# Procedure: as §2, with “water). […] FACS-sorted viable AML cells (GFP^+7-AAD^−) were resuspended in MethoCult GF M3434 (StemCell Technologies) at 1000 cells/ml and plated in SmartDish 6-well plates (StemCell Technologies) at 1 ml/well in duplicate. Cells were cultured in a humidified incubator at 37° C. in ambient air with 5% CO2. After 5 days colonies were counted.” for “water).”
# [4] = tested on: pyrimidine synthesis in HoxA9/Meis1 AML cells; assay: LC-MS-based quantification of glutamine metabolism and pyrimidine synthesis metabolites in HoxA9/Meis1 AML cells of treated mice; assay type: in vivo, mouse; settings: mice treated with vehicle or BRQ 24 prior
# Procedure: as §2, with “To inhibit GCL, mice were treated with BSO (twice daily by I.P. injection at 2.23 mg/kg+in the drinking water at 4.45 mg/ml) or vehicle (saline by I.P. injection+untreated drinking water).” left out
# (§5) For untargeted metabolomics analysis, data were processed with Compound Discoverer 3.0 (ThermoFisher Scientific) using the mzCloud mass spectral library for compound annotation. […] For targeted metabolomics analysis, data were analyzed with Tracefinder4.1 (ThermoFisher Scientific).
# MLL-AF9 AML cells [5] = assay: Double-stranded DNA breaks in MLL-AF9 AML cells of treated mice, flow cytometry for gamma-H2AX; assay type: in vivo, mouse; settings: short term DON after iCT; one day after the last dose of DON
# Procedure: as §3, with “(PerkinElmer). When indicated, mice were treated with iCT (cytarabine, 100 mg/kg, once daily for 5 days and doxorubicin, 3 mg/kg, once daily for the first 3 days) or vehicle (saline) delivered via I.P. injection.” for “(PerkinElmer).”
# as §4, with “staining.” for “staining. Cells were incubated with 200 nM TMRE or 2.5 μM CellROX Orange in RPMI1640 medium supplemented with 10% FBS, 100 I.U./ml penicillin, 100 μg/ml streptomycin and 2 mM L-glutamine at 37° C. for 30 minutes, washed in flow buffer and analyzed. For all flow cytometry experiments, single color controls were used to set compensations and fluorescence minus one controls were used to set gates.”
# [6] = tested on: glutamine metabolism in MLL-AF9 AML cells; assay: LC-MS-based quantification of metabolites in MLL-AF9 AML cells of treated mice; assay type: in vivo, mouse; settings: one day after the last dose of DON
# Procedure: as §2
# Mice were euthanized by CO2 asphyxiation and femurs and tibias were isolated and cleaned to remove muscle. Bones were then crushed using a mortar and pestle in ice-cold flow buffer (PBS containing 2% FBS), and the obtained cell suspension was passed through a 70 μm cell strainer. Red blood cells were removed by incubating cells for 5 minutes in ACK lysing buffer (Gibco) on ice, cells were washed and resuspended in ice-cold flow buffer containing the viability dye 7-aminoactinomycin D (7-AAD; BD Biosciences). Viable AML cells (GFP^+7-AAD^−) were sorted on a BD FACSAria II (BD Biosciences) with the sample collector cooled to 4° C. Sorted cells were immediately processed.
# FACS-sorted cells or plasma samples were lysed in ice-cold methanol and polar metabolites were extracted using methanol-chloroform phase separation (methanol:water:chloroform in 2:1:2 ratio). Samples were then dried under nitrogen flow, resuspended in 70% acetonitrile in water containing 2.5 μM of an internal standard (^13C-, ^15N-labeled amino acid mix; Cambridge Isotope Laboratories) and run on a ThermoFisher Q-exactive equipped with Zic-pHILIC column (150×2.1 mm, 5 μm; Merck). A volume of 5 μl was injected and the full mass spectrum was obtained in both positive and negative mode (0 to 45 minutes, resolution 70000, AGC target 3e6, mz range 66 to 990). Mobile phase A for chromatography consisted of 20 mM ammonium carbonate, 0.1% ammonium hydroxide, in water and mobile phase B of 97% acetonitrile in water. For untargeted metabolomics, a pooled sample was created from all samples and used for MS/MS runs. For targeted analysis, a standard mix at 1 μM of each compound of interest was prepared and run after the samples to confirm retention times.
# as §5
# [7] = Tolerability of DON in AML-bearing mice; assay type: in vivo, mouse
# Procedure: as §2
# MLL-AF9 AML cells [8] = assay: Apoptotic cells in MLL-AF9 AML cells of treated mice, flow cytometry for active Caspase 3; assay type: in vivo, mouse; settings: combination of iCT and DON (sequential); one day after the last dose of DON
# Procedure: as §2
# HoxA9/Meis1 AML cells = assay: AML cell elimination in HoxA9/Meis1 AML-bearing mice; assay type: in vivo, mouse; settings: DON after completion of iCT
# Procedure: as §2
# [9] = tested on: solid tumors and leukemia; settings: Phase I and II clinical trials, cited from earlier work
# [10] = agent alone, compared to vehicle-treated mice
# [11] = combination with iCT (sequential), four days after the last dose of iCT
smiles,measurement,setting,value
"Cc1c(-c2ccc(-c3ccccc3F)cc2)nc2ccc(F)cc2c1C(=O)O [BRQ, brequinar]",survival,"MLL-AF9 AML; two doses of BRQ 50 mg/kg I.P. following iCT, compared to iCT alone",significantly extend survival; also recorded: extended survival
same,survival,"MLL-AF9 AML; two doses of BRQ 50 mg/kg I.P. following iCT, compared to iCT alone, listed as brequinar",remarkably extend animal survival
same,survival,"HoxA9/Meis1 AML; BRQ 50 mg/kg I.P. following iCT, compared to iCT alone (FIG. 19E)",significantly extend survival
same,elimination of AML cells from the bone marrow,"MLL-AF9 AML cells [1]; short term BRQ after iCT, four days after the last dose of iCT",improved elimination of AML cells from the bone marrow
same,percentage of CD34+cKit+ cells,MLL-AF9 AML cells [2]; [10],strongly reduced
same,percentage of CD34-cKit+ cells,"MLL-AF9 AML cells [2]; combination with iCT, compared to BRQ alone",further reduced
same,number of colony-forming units (CFUs),MLL-AF9 AML cells [3]; [10],strongly reduced
same,number of colony-forming units (CFUs),MLL-AF9 AML cells [3]; [11],further reduced
same,pyrimidine synthesis (metabolite levels),[4],effectively inhibits pyrimidine synthesis
"CCCCS(=N)(=O)CCC(N)C(=O)O [BSO, L-buthionine-sulfoximine]",survival,"MLL-AF9 AML; BSO (2.23 mg/kg B.I.D. I.P. + 4.45 mg/ml in drinking water) for 4 days following iCT, compared to iCT alone",no difference in survival compared to iCT alone
"[N-]=[N+]=CC(=O)CC[C@H](N)C(=O)O [DON, 6-diazo-5-oxo-L-norleucine]",survival,MLL-AF9 AML; DON 0.3 mg/kg I.P. given for 5 days at the same time as iCT (concomitant),no difference in survival
same,survival,"MLL-AF9 AML; DON 0.3 mg/kg I.P. started after completion of iCT, covering the moment of maximal response, daily for a short time or continuously every other day",clear survival benefit; also recorded: improved survival
same,"survival, DON every other day compared to short term DON treatment",MLL-AF9 AML; DON every other day following iCT,further improved mouse survival
same,survival,HoxA9/Meis1 AML; two doses of DON 0.3 mg/kg I.P. after completion of iCT,improved mouse survival
same,relapse,"MLL-AF9 AML cells [1]; short term DON after iCT, bioluminescence imaging",delayed relapse
same,elimination of AML cells (AML burden),"MLL-AF9 AML cells [1]; short term DON after iCT, one day after the last dose of DON",improved elimination of AML cells; also recorded: reduced the number of chemoresistant cells
same,double stranded DNA breaks in residual cells (gamma-H2AX),MLL-AF9 AML cells [5],increased double stranded DNA breaks
same,UMP levels in chemoresistant AML cells,[6]; DON after iCT,prevented the increase of UMP levels
same,glutamate level in AML cells,[6]; DON after iCT,normalizing the increase in glutamate; also recorded: partially reducing the increase in glutamate
same,reduced glutathione (GSH) levels in AML cells,[6]; DON after iCT,effective in suppressing the increase in GSH levels
same,aspartate level in AML cells,[6]; iCT followed by DON,remained high
same,glutamine level in AML cells,[6]; mice treated with iCT and/or DON,accumulation of glutamine
same,percentage of CD34+cKit+ cells,MLL-AF9 AML cells [2]; [10],no effect on marker expression
same,percentage of CD34+cKit+ cells,MLL-AF9 AML cells [2]; [11],normalized
same,number of colony-forming units (CFUs),MLL-AF9 AML cells [3]; [10],moderately increased the number of CFUs
same,number of colony-forming units (CFUs),MLL-AF9 AML cells [3]; [11],normalized
same,tolerability,[7]; DON every other day after iCT,acceptable
same,tolerability / toxicity,[7]; daily DON injections after iCT,toxicity issues; also recorded: did not tolerate
same,percentage of apoptotic cells (active Caspase 3),MLL-AF9 AML cells [8],more apoptotic cells
same,AML cell elimination,HoxA9/Meis1 AML cells,enhanced AML cell elimination
same,clinical side effects,[9],"dose-dependent side effects including nausea, vomiting and mucositis"
same,clinical efficacy,[9]; single agent,limited efficacy as a single agent
